Patent publication US12465594B2 (Brown University, priority 2018, dated 2025)

Assays:
[1] = biological target: HEK293 cells expressing FLAG-CRFBP(10 kD)-HA-CRF2α (Homo sapiens, UniProt P24387+Q13324); conditions: 384-well format
[2] = system: NMDAR EPSCs in VTA dopamine neurons; assay: Electrophysiology: CRF potentiation of NMDAR EPSCs in VTA slices; type: cell-based, mouse; conditions: CRF 1 μM, VTA-DA neurons, acute brain slices
Text: Male and female mice (n=44; 6-10 weeks) were anesthetized with Euthasol (Butler-Schein). Brains were rapidly removed and placed in ice-cold NMDG-based artificial Cerebrospinal Fluid (aCSF) cutting solution containing (in mM): 92 NMDG, 20 HEPES, 25 glucose, 30 NaHCO3, 2.5 KCl, 1.2 NaPO4 saturated with 95% O2/5% CO2 with an osmolarity of 305-308 mOsm (Advanced Cell Diagnostics). The brain was cut in ice-cold NMDG solution to obtain horizontal VTA slices, 230 μm thick, using a Leica vibratome (Leica VT1200) and slices were incubated in warm NMDG solution (34° C.) for <5 minutes before being placed in a modified aCSF holding solution (in mM): 92 NaCl, 20 HEPES, 25 glucose, 30 NaHCO3, 2.5 KCl, 1.2 NaPO4 (305-308 mOsm). Slices were incubated at room temperature for at least 1 hour before recording.
Whole-cell patch clamp of the lateral VTA was performed under the guidance of IR-DIC optics on an Olympus BX5iWI microscope. Cells were patched with 1.8-3 MO resistance glass microelectrodes containing the following internal solution (in mM): 117 cesium methanesulfonate, 20 HEPES, 0.4 EGTA, 2.8 NaCl, 5 TEA-CI, 4 Mg-ATP, 0.4 Na-GTP, and 5 QX-314 (280-285 mOsm). Dopamine cells were identified by the following criteria: 1) large multipolar soma, 30-40 μm in diameter, 2) tonic firing of <4 Hz when cell attached, 3) large […] with negative voltage step (identified immediately following break in). […] Series resistance was monitored online. […]
For electrophysiology measures, excitatory post-synaptic currents (EPSCs) were normalized to 7 minute of averaged baseline responses, prior to drug application. […] Results are reported as M±SEM a in bar graphs comparing drug to vehicle and analyzed by a one-way ANOVA and post-hoc comparisons to vehicle were performed using a Bonferroni multiple comparisons correction measures (**p<0.01). […]
NMDAR excitatory postsynaptic currents (EPSCs) were recorded from VTA dopamine (DA) neurons in acute brain slices from male and female mice. […]

HEK293 cells expressing FLAG-CRFBP(10 kD)-HA-CRF2α, sequence (P24387+Q13324 fused): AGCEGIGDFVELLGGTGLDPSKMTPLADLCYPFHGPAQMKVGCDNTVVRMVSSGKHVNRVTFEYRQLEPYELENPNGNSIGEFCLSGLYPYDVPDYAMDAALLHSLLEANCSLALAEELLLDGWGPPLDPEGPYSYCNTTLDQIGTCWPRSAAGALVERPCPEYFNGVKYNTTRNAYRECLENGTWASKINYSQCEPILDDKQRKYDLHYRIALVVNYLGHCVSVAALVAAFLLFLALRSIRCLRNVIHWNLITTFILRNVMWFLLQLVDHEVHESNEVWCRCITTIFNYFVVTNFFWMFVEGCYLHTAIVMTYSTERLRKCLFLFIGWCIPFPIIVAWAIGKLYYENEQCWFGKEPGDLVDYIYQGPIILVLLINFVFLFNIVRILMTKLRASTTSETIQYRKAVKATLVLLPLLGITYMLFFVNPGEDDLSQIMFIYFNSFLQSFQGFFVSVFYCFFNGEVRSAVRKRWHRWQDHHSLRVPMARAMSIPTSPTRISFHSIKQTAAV

Question: For “corticotropin releasing factor [CRF, reference compound]”, which “EC80, CRF-induced intracellular calcium release” value [1] is on record?
Answer: The value was 1000 nM.

Question: And the “Effect of CRF on NMDAR EPSCs” value [2]?
Answer: Its value is “potentiated NMDA receptor EPSCs”.
